This is an account of results in ChEMBL document CHEMBL3259772, “Identification and characterization of small molecule modulators of the Epstein-Barr virus-induced gene 2 (EBI2) receptor” (J Med Chem, 2014).

What all share (format): ADME, organism-based
One data set concerns Mus musculus. Kind of data set: Total blood clearance in C57BL/6 mouse at 1 mg/kg, iv administered as cassette dose. Also noted: dose 1 mg/kg, route intravenous. The note with it: in vivo.
Data set [1] in a line: Apparent volume of distribution at steady state in C57BL/6 mouse at 1 mg/kg, iv administered as cassette dose. Also noted: dose 1 mg/kg, route intravenous. Conditions: in vivo, read-out: Vdss(app).
A short description of data set [2]: AUC (infinity) in C57BL/6 mouse at 1 mg/kg, iv administered as cassette dose. Also on record: time infinity, dose 1 mg/kg, route intravenous. The note with it: plasma.
The nature of data set [3]: Terminal blood half life in C57BL/6 mouse at 1 mg/kg, iv administered as cassette dose. Also on record: dose 1 mg/kg, route intravenous. Conditions: read-out: beta t1/2 (converted).
Data set [4] is described as follows: Tmax in C57BL/6 mouse at 5 mg/kg, po administered as cassette dose. Also noted: dose 5 mg/kg, route oral. The note with it: in vivo.
Data set [5] can be described thus: AUC (infinity) in C57BL/6 mouse at 5 mg/kg, po administered as cassette dose. Also noted: time infinity, dose 5 mg/kg, route oral. The note with it: plasma.
Data set [6] in a line: Oral bioavailability in C57BL/6 mouse at 5 mg/kg administered as cassette dose. The note with it: in vivo.
Data set [7] can be described thus: Cmax in C57BL/6 mouse at 5 mg/kg, po administered as cassette dose. Also noted: dose 5 mg/kg, route oral. The note with it: in vivo.

Broadly, the AUC(0-inf) is the area under the concentration-time curve extrapolated to infinity. High values mean more exposure, low ones less exposure. In the data set on Mus musculus, `COc1ccc(/C=C/C(=O)N2CCN(C(=O)c3ccc(OC)cc3)CC2)cc1` gave a CL of 52 µL/min/mg. In data set [1], the Vd was 0.8 L/kg. The same compound had an AUC(0-inf) in data set [2] of 0.841 µM·h. Moreover, the half-life in data set [3] is 0.2 h.

Usually Tmax stands for the time from dosing to the highest level. As a reminder, the bioavailability is dose-corrected exposure relative to a reference, in per cent. A word on the Cmax: it is the highest concentration seen after dosing. Regarding `COc1ccc(C(=O)N2CCN(C(=O)/C=C/c3ccc(Br)cc3)CC2)cc1`, the time of peak concentration (Tmax) in data set [4] was 1 h. Moreover, the CL in the data set on Mus musculus worked out at 16 µL/min/mg. Further, the AUC(0-inf) in data set [5] is 3.61 µM·h; in data set [2] it was 2.44 µM·h. Also, the Vd in data set [1] amounted to 1.4 L/kg. Besides, the bioavailability in data set [6] came out at 49%. In data set [7], the concentration peaked (Cmax) at 835 nM. In addition, in data set [3], the half-life is 1.1 h.
